Results published in ChEMBL document CHEMBL1141925, “Carbonic anhydrase inhibitors. Inhibition of the cytosolic and tumor-associated carbonic anhydrase isozymes I, II, and IX with a series of 1,3,4-thiadiazole- and 1,2,4-triazole-thiols” (Bioorg Med Chem Lett, 2005).

Tests used:
[1] = biological target: Carbonic anhydrase 2 (Homo sapiens, UniProt P00918)
Description: Inhibitory constant against human Carbonic anhydrase II

[2] = biological target: Carbonic anhydrase 1 (Homo sapiens, UniProt P00915)
[3] = biological target: Carbonic anhydrase 9 (Homo sapiens, UniProt Q16790); assay: Inhibitory constant against human Carbonic anhydrase IX

Sequence of Carbonic anhydrase 1 (P00915 whole entry): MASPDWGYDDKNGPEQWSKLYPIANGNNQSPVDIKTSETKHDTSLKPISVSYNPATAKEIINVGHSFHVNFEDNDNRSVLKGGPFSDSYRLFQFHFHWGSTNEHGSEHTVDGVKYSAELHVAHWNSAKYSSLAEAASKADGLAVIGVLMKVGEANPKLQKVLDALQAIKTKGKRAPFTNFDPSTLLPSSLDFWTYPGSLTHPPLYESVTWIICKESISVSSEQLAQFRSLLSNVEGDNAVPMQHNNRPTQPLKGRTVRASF

CCCCn1c(S)nnc1-c1ccc(S(=O)(=O)c2ccccc2)cc1
Ki [1]: 604 µM
Ki [2]: 415 µM

CCCn1c(-c2ccc(S(=O)(=O)c3ccc(Cl)cc3)cc2)n[nH]c1=S
Ki [3]: 9.8 µM
Ki [1]: 618 µM
Ki [2]: 548 µM

Cc1ccc(-n2c(-c3ccc(S(=O)(=O)c4ccc(Br)cc4)cc3)n[nH]c2=S)cc1
Ki [3]: 60.4 µM
Ki [1]: 251 µM
Ki [2]: 249 µM

CCCCn1c(-c2ccc(S(=O)(=O)c3ccc(Br)cc3)cc2)n[nH]c1=S
Ki [3]: 11.5 µM

O=C(O)c1cccnc1C(=O)Nc1nnc(S)s1
Ki [3]: 242 µM

CN(C)c1cccc2c(S(=O)(=O)Nc3nnc(S)s3)cccc12
Ki [3]: 296 µM

CCCCn1c(-c2ccc(S(=O)(=O)c3ccc(Cl)cc3)cc2)n[nH]c1=S
Ki [3]: 96.8 µM
Ki [1]: 227 µM
Ki [2]: 273 µM

O=[N+]([O-])c1ccccc1S(=O)(=O)Nc1n[nH]c(=S)s1
Ki [3]: 315 µM
Ki [1]: 230 µM
Ki [2]: 303 µM

O=C(Nc1nnc(S)s1)NS(=O)(=O)Nc1nnc(S)s1
Ki [3]: 322 µM

Nc1nnc(S)s1
Ki [3]: 9.3 µM

CC(=O)Nc1nnc(S)s1
Ki [3]: 9.5 µM
Ki [1]: 8.8 µM
Ki [2]: 4.5 µM

Cc1cccc(-n2c(-c3ccc(S(=O)(=O)c4ccc(Br)cc4)cc3)n[nH]c2=S)c1
Ki [3]: 320 µM
Ki [1]: 301 µM
Ki [2]: 254 µM

O=C(Nc1nnc(S)s1)N(c1ccccc1)c1ccccc1
Ki [3]: 271 µM

CCCn1c(-c2ccc(S(=O)(=O)c3ccc(Br)cc3)cc2)n[nH]c1=S
Ki [3]: 772 µM
Ki [1]: 382 µM
Ki [2]: 508 µM

CCCn1c(S)nnc1-c1ccc(S(=O)(=O)c2ccccc2)cc1
Ki [3]: 119 µM
Ki [1]: 276 µM
Ki [2]: 290 µM

O=C(Nc1ccc(Cl)c(Cl)c1)Nc1nnc(S)s1
Ki [3]: 271 µM

O=C(Nc1nnc(S)s1)c1c(F)c(F)c(F)c(F)c1F
Ki [3]: 312 µM
Ki [1]: 129 µM
Ki [2]: 308 µM

O=[N+]([O-])c1ccc(SNc2n[nH]c(=S)s2)cc1
Ki [3]: 256 µM

O=C(Nc1nnc(S)s1)c1ccccn1
Ki [3]: 306 µM
